Results published in patent US8273543B2, “Regulation of BACE degradation” (The General Hospital Corporation, priority 2006, dated 2012).
Entries after “also recorded” stand apart in the source; their conditions may differ. Peptide text beside a SMILES is read from it. * marks the point of attachment. Cbz = O=C(OCc1ccccc1)*; CH2F = FC*

Assays:
BACE [1] = assay: Induction of apoptosis, Western blot of BACE protein levels; type: cell-based, human; conditions: H4-APP751 cells
Method: (§1) H4 human neuroglioma cells expressing APP751 (H4-APP751) and APP-SWE (H4-APPSWE) were grown in DMEM containing 10% FBS, 200 μg/mL G418, 250 μg/mL zeocin, 2 mM L-glutamine, 100 U/ml penicillin, 100 μg/mL streptomycin. For the induction of apoptosis, we used staurosporine or etoposide (Calbiochem). For time-course experiments, cells were seeded at a density of 2×10^6 cells per 100 mm dish and treated with STS (1 μM) or etoposide (100 μg/mL). In order to inhibit caspase activation a sister plate of cells was pretreated with zVAD (100 μM, Calbiochem) for 1 hr before STS treatment. At different time points (0, 3, 6, 9, 12, and 24 hr), the cells were scraped, centrifuged, and then lysed in buffer containing 1% NP40. Western blot analysis was performed as previously described (Tesco et al., 2003). Densitometry analysis was performed on a Macintosh computer using the public domain NIH Image program (developed at the U.S. National Institutes of Health and available on the Internet at rsb.info.nih.gov/nih-image/) or using a Versadoc Imager and QuantityOne software (BioRad).

BACE [2] = conditions: caspase inhibition; cited from earlier work
GGA3 [3] = assay: GGA3 cleavage during apoptosis in H4 cells, Western blot with anti-GGA3 antibody; type: cell-based, human; conditions: for cleavage of full length GGA3: H4 cells, STS time course
Method: H4 cells were treated with staurosporine (STS) during time course experiments.
as §1

caspase 3 = assay: Caspase 3 activation, Western blot with anti-caspase 3 active fragment antibody; type: cell-based, human; conditions: H4-APP751 cells, STS treatment
Text: (§2) Gervais and colleagues (Gervais et al., 1999) proposed that caspase-mediated cleavage of APP at APPD720 was responsible for increased Aβ generation associated with apoptosis. […] The Aβ ELISA measured Aβ1-total using biotinylated 3D6, which specifically recognizes the aspartate in position 1 of Aβ, as a reporter antibody. […] Here, we investigated whether apoptosis-mediated increases in Aβ levels may be due to enhanced cleavage of APP by BACE, the protease responsible for β-secretase cleavage of APP (Vassar et al., 1999). For this purpose, we tested whether apoptosis/caspase activation leads to increased levels of APP-C99, the C-terminal fragment generated by β-secretase cleavage of APP. […]
(§3) H4 human neuroglioma cells expressing APP751 (H4-APP751) and APP-SWE (H4-APPSWE) were grown in DMEM containing 10% FBS, 200 μg/mL G418, 250 μg/mL zeocin, 2 mM L-glutamine, 100 U/ml penicillin, 100 μg/mL streptomycin. […] Densitometry analysis was performed on a Macintosh computer using the public domain NIH Image program (developed at the U.S. National Institutes of Health and available on the Internet at rsb.info.nih.gov/nih-image/) or using a Versadoc Imager and QuantityOne software (BioRad).

TACE and APP = assay: Cycloheximide degradation time-course, TACE and APP; type: cell-based, human; conditions: H4-APP751 cells, STS+CHX vs CHX (40 μg/ml) only
Method: (§4) H4-APP751 cells were treated with CHX (40 μg/ml) only or STS (1 μM)+CHX during a 30 hr time-course. Lysates from each time point were immunoblotted with the specific antibodies, anti-BACE, anti-TACE, and the anti-APP antibody […].

GGA3 [4] = assay: Full length GGA3 in primary cortical neurons treated with STS, Western blot; type: cell-based; conditions: primary cortical neurons (PCN), STS for 12 hr
Method: FIG. 5b: rat brain samples from the experiment described in FIG. 7. […] FIG. 5c: H4 and primary cortical neurons (PCN) were treated with STS for 12 hr.

BACE mRNA = assay: Northern blot analysis of BACE mRNA; type: cell-based, human; conditions: H4-APP751 cells, 6 hr of STS treatment
Method: Total RNA was extracted using TRIZOL (Invitrogen). Northern blot analysis was performed as previously described (Koh et al., 2001). Human cDNA of BACE was labeled with […] (PerkinElmer, Norwalk Conn.) using random hexanucleotide primers (Prime-a-gene labeling system; Promega Madison Wis.).

BACE [5] = assay: Cycloheximide degradation time-course, BACE; type: cell-based, human; conditions: H4-APP751 cells, STS+CHX vs CHX (40 μg/ml) only
Method: as §4

Aβ1-total = conditions: CHO cells, 6 hr treatment; cited from earlier work
APP-C99 = APP-C99 levels during apoptosis, Western blot with WO2 antibody; type: cell-based, human; conditions: H4-APP751 cells, apoptosis induced by STS
Text: as §2, §3

[6] = test system: ischemic and excitotoxic neuronal damage; conditions: intracerebroventricular injection before ischemia and immediately after reperfusion; cited from earlier work
BACE [7] = conditions: variety of cell types, including primary neurons; cited from earlier work
Aβ40 = assay: Secreted Aβ40 in conditioned media, sandwich ELISA; type: cell-based, human; conditions: H4-APP751 cells expressing GGA3DN
Method: Secreted Aβ40 was measured in the conditioned media using an Aβ40-specific sandwich ELISA (BioSource International, Camarillo, Calif.). Aβ concentration was normalized against the concentration of protein in the cell lysates.
H4 cells stably expressing wild-type APP-751 or APP containing the Swedish FAD mutation (APPSwe) were transfected with 200 nM siGGA3 (ID #36847, Ambion, Austin Tex.) or a 19 bp scrambled sequence was used as negative control for siRNA (Silencer Negative control #1 siRNA, Ambion) using oligofectamine following manufacturer's instructions (Invitrogen). 72 hr later, GGA3 levels were determined by WB analysis with anti-GGA3 antibody (Transduction Laboratories). At the same time point, a sister plate of the same cells was co-transfected with myc-tagged BACE plasmid and siGGA3 or siNeg. After 48 hr the media was replaced. Cells and media were collected after 72 hr following the co-transfection.

BACE [8] = assay: Co-transfection of GGA3DN with myc-tagged BACE in H4-APP751 cells, BACE levels; type: cell-based, human
Text: To address this possibility we engineered a HA-tagged GGA3 N-terminal fragment 1-313 mimicking the N-terminal caspase-derived fragment generated by cleavage at D313 (GGA3DN). […] During apoptosis, however, caspase-mediated cleavage of GGA3 results not only in the production of GGA3DN but also the degradation of GGA3.

GGA3 [9] = assay: In vitro translation and recombinant caspase 3 cleavage assay; type: biochemical, human; conditions: recombinant caspase 3
Method: The HA-GGA3 pcDNA4 plasmid was a generous gift from Dr. Waguri. GGA3 was in vitro translated (IVT) in the presence of [^35S]-labeled methionine using TNT Quick Coupled Transcription/Translation Systems as indicated by the manufacturer (Promega, Madison Wis.). 5 μL of IVT reaction were incubated with or without 200 ng of recombinant caspase 3 (Pharmingen, San Diego, Calif.) in caspase reaction buffer (sucrose 20%, NaCl 100 mM, HEPES (pH 7.4) 20 mM, CHAPS 0.1%, DTT 10 mM, EDTA 1 mM) at 37° for 2 hr. The reactions were separated by SDS-page (4-12% Bis-tricine gel with MES running buffer, Invitrogen Carlsbad, Calif.). The gel was fixed, dried and exposed to a phosphorimager screen. The images were acquired with a FX phosphorimager (Bio-Rad, Hercules Calif.). GGA3 in vitro translation was also performed in the presence of cold methionine. Then, 5 μL of IVT reaction were incubated with or without 200 ng of recombinant caspase 3 overnight at 37°. The reactions were separated by SDS-page. In order to better separate the bands generated by caspase 3 cleavage we used 12% Bis-tricine gel and MOPS running buffer (Invitrogen). Then, the proteins were transferred to PVDF membrane and WB analysis with anti-GGA3 antibody was performed.

Molecule: CC(NC(=O)C(NC(=O)OCc1ccccc1)C(C)C)C(=O)NC(CC(=O)O)C(=O)CF (stereo not drawn) [zVAD] (Cbz-Val-Ala-Asp-CH2F; configuration not given here)
- BACE accumulation during STS or etoposide treatment (BACE [1]; caspase inhibition): prevented BACE accumulation
- increase in Aβ production during apoptosis (BACE [2]): prevent
- stabilization of BACE during apoptosis (BACE [2]): prevent the stabilization of BACE
- cleavage of GGA3 during apoptosis (GGA3 [3]; apoptotic H4 cells, caspase inhibition): inhibited; also recorded: prevented

Molecule: CN[C@@H]1C[C@H]2O[C@@](C)([C@@H]1OC)n1c3ccccc3c3c4c(c5c6ccccc6n2c5c31)C(=O)NC4 [STS, staurosporine]
- earliest time of caspase 3 activation (caspase 3): 6 h
- degradation of TACE and APP (TACE and APP): unchanged
- full length GGA3 (GGA3 [4]): decrease in full length GGA3
- increase in BACE protein levels (BACE [1]; 12 hr of STS treatment): ~6 fold
- increase in BACE protein levels (BACE [1]; 24 hr of STS treatment): ~9 fold
- BACE mRNA levels (BACE mRNA): virtually undetectable
- degradation of BACE (BACE [5]): degradation of BACE was decreased
- Aβ1-total production compared to untreated cells (Aβ1-total): significantly increased
- levels of APP-C99 (APP-C99): increased levels of C99
- cleavage of full length GGA3 (GGA3 [3]): cleaved into two major fragments
- cleavage of full length GGA3 (GGA3 [3]; listed as staurosporine): cleaved in two major fragments

Molecule: COC(=O)C[C@H](NC(=O)[C@H](C)NC(=O)[C@@H](NC(=O)OCc1ccccc1)C(C)C)C(=O)CF [z-VAD.FMK] (Cbz-Val-Ala-Asp(OMe)-CH2F)
- ischemic and excitotoxic neuronal damage [6]: significantly reduces

Molecule: CCN(CC)CCCC(C)Nc1ccnc2cc(Cl)ccc12 (centres unmarked) [chloroquine]
- accumulation of endogenous and ectopically expressed BACE (BACE [7]): lead to accumulation

Molecule: COC(=O)CC[C@H](NC(=O)[C@H](CC(=O)OC)NC(=O)OCc1ccccc1)C(=O)N[C@H](C(=O)N[C@@H](CC(=O)OC)C(=O)CF)C(C)C [zDEVD.FMK]
- ischemic and excitotoxic neuronal damage [6]: significantly reduces

Molecule: COc1cc([C@@H]2c3cc4c(cc3[C@@H](O[C@@H]3O[C@@H]5CO[C@@H](C)O[C@H]5[C@H](O)[C@H]3O)[C@H]3COC(=O)[C@H]23)OCO4)cc(OC)c1O [etoposide]
- BACE protein levels (BACE [1]; apoptosis induced by etoposide): increased BACE protein levels

Molecule: Cl.N [NH4Cl]
- accumulation of endogenous and ectopically expressed BACE (BACE [7]): lead to accumulation

B1: GGA3DN: HA-tagged GGA3 N-terminal fragment 1-313 mimicking the N-terminal caspase-derived fragment generated by cleavage at D313 (protein, UniProt Q9NZ52 1-313, looked up, fragment)
chain: MAEAEGESLESWLNKATNPSNRQEDWEYIIGFCDQINKELEGPQIAVRLLAHKIQSPQEWEALQALTVLEACMKNCGRRFHNEVGKFRFLNELIKVVSPKYLGDRVSEKVKTKVIELLYSWTMALPEEAKIKDAYHMLKRQGIVQSDPPIPVDRTLIPSPPPRPKNPVFDDEEKSKLLAKLLKSKNPDDLQEANKLIKSMVKEDEARIQKVTKRLHTLEEVNNNVRLLSEMLLHYSQEDSSDGDRELMKELFDQCENKRRTLFKLASETEDNDNSLGDILQASDNLSRVINSYKTIIEGQVINGEVATLTLPD
modifications: HA tag
notes: HA-tagged GGA3 N-terminal fragment 1-313 mimicking the N-terminal caspase-derived fragment generated by cleavage at D313
- levels of secreted Aβ40 (Aβ40): the increase was not statistically significant
- BACE levels compared to vector alone or GGA3 (BACE [8]): BACE levels were increased

B2: recombinant caspase 3: Recombinant caspase 3 purchased from Pharmingen (protein)
chain: SGISLDNSYKMDYPEMGLCIIINNKNFHKSTGMTSRSGTDVDAANLRETFRNLKYEVRNKNDLTREEIVELMRDVSKEDHSKRSSFVCVLLSHGEEGIIFGTNGPVDLKKITNFFRGDRCRSLTGKPKLFIIQACRGTELDCGIETDSGVDDDMACHKIPVEADFLYAYSTAPGYYSWRNSKDGSWFIQSLCAMLKQYADKLEFMHILTRVNRKVATEFESFSFDATFHAKKQIPCIVSMLTKELYFYH
- cleavage of in vitro translated GGA3 (cold methionine), Western blot (GGA3 [9]): three major fragments
